Data as given in patent publication US20190077774A1, “PEROXISOME PROLIFERATOR-ACTIVATED RECEPTOR AGONISTS” (City of Hope, priority 2017, published 2019).

Columns and labels:
Type in all cases: in vivo
C57Bl/6J female mice = assay: Serum triglyceride and lipid effects in C57Bl/6J female mice; conditions: 7 day period (FIG. 10)
[1] = Blood glucose in treated mice; conditions: after 4 days (FIG. 16)
Description: FIG. 16. Enhanced PPARα expression and/or activity (particularly in concert with PGC-1α) is expected to increase blood glucose by upregulating gluconeogenic enzymes like PEPCK.
(§1) Next, we would like to investigate the therapeutic potential of DY121 to see if it could be candidate for treating NAFLD/NASH. Note that the pathogenesis of NASH has not yet been fully elucidated so far; however, the ‘two-hit’ theory is widely accepted. The first hit is the accumulation of fatty acids in the liver to cause steatosis. […] The newly produced PPARα agonist DY121 and its analogs, as well as WY100=WY14643 and GW3 (GW7647), were evaluated in C57Bl/6J female mice for their ability to alter serum triglyceride, liver gene expression, and glucose. Fibric acid derivatives (100 mg/kg/day) was used as a control, WY100 (WY14, 643, 100 mg/kg/day), GW3 (GW7647-positive control, 3 mg/kg/day), DY121 (˜3 mg/kg/day), respectively. DY series compounds and controls administered once to C57Bl/6J female mice at 8 weeks of age. Mice were treated at 3 mg/kg for all compounds except WY14643 (100 mg/kg).

[2] = tested on: PPARα target genes in the liver; assay: Liver gene expression of PPARα targets in treated mice (RT-qPCR); conditions: for Cyp4A3 expression: chronic treatment (FIG. 13); for ACADM expression: time course (FIG. 18)
Description: FIG. 6. […] Data in same order as triglyceride suppression (FIG. 5). apo CIII and LPL expression inversely correlate with triglyceride suppression for many, but not all, compounds. ACOX1 and Cyp4A3 expression correlate with triglyceride suppression for many, but not all, compounds.
The following oligonucleotide primers were used to amplify insertion sequences: for PPARα, FW-5′-[…]-3′ (SEQ ID NO:1) and Rev-5′-[…]-3′ (SEQ ID NO:2); for RXRα, FW-5′ […]-3′ (SEQ ID NO:3) and Rev-5′-[…]-3′ (SEQ ID NO:4). It has been well established that PPARα agonists fibrates reduce plasma triglycerides largely by inducing hepatic PPARα-mediated transcription of key proteins in hepatic long-chain fatty acid […], such as CPT1 (carnitine palmitoyltransferase-1). DY121 promoted the expression of PPARα, CPT1, and LPL involved in free fatty acid β-oxidation. The mRNA expressions of the PPARα-regulated genes CPT-Ia and ACADM were measured by real-time quantitative-PCR (RT-qPCR). […] A structural specificity of DY121 may be responsible for this regulation. PPARα is predominantly expressed in liver. PPARα modulates fatty acid catabolism in the liver. We next measured the mRNA expression of PPARα target genes in the liver. PPARα agonists exert their actions and attributed to the activation of PPARα which in turn effects an increase in LPL (lipoprotein lipase) gene expression and transrepression of apoC-III (apolipoprotein C-III). Activation of PPARα by its modulators can increase PPARα levels and activate PPARα pathways, leading to increased fatty-acid oxidation and reduction of oxidative stress. DY121 and its analogs induced the expression of PPARα-regulated genes involved in lipid, glucose, and cholesterol metabolism, such as ACOX1 (acyl-CoA oxidase) and Cyp4A3 (cytochrome P450 gene subfamily). Members of the CYP4A gene subfamily catalyze the oxygenation of biologically important fatty acids.
as §1, with “DY series compounds and controls administered once to C57Bl/6J female mice at 8 weeks of age. Mice were treated at 3 mg/kg for all compounds except WY14643 (100 mg/kg).” left out

[3] = Body weight and food intake of treated mice; conditions: time course over 7 days (FIG. 9)
Description: as §1

Row | Compound | triglycerides, chronic treatment (C57Bl/6J female mice) | glucose [1] | Cyp4A3 expression ([2]; liver) | apoCIII expression ([2]; liver, chronic treatment up to 7 days (FIG. 11)) | ACADM expression [2] | weight [3] | liver CPT-Ia expression ([2]; chronic (>3 d) treatment (FIG. 17))
1 | Cc1cccc(Nc2cc(Cl)nc(SCC(=O)O)n2)c1C [WY14643, reference compound] | suppressed triglycerides over the entire 7 day period | increased after 4 days | most greatly | suppressed apoCIII only after 7 days treatment | upregulates | caused acute weight loss | –
2 | CC(C)(Sc1ccc(CCN(CCCCC2CCCCC2)C(=O)NC2CCCCC2)cc1)C(=O)O [GW7647, reference compound] | – | increased after 4 days | consistently | – | upregulates | – | upregulated
